How the values were obtained:
recombinant mouse HGF = target: T1, recombinant mouse HGF (Mus musculus, UniProt Q08048); assay: Inhibition of nitration of recombinant HGF protein by peroxynitrite (ONOO-), Western blot with anti-nitrotyrosine antibody; type: biochemical; conditions: for inhibit nitration of tyrosine residues in HGF: summary statement
T1 construct: purchased R&D Systems 2207-HG-025/CF
Procedure: GSSSG dihydrate produced by the method described in Patent Literature 1 was added to and mixed with a purified preparation of recombinant mouse HGF (2207-HG-025/CF, manufactured by R&D Systems, carrier free) dissolved in PBS such that the molar ratio of HGF:GSSSG was 1:10, 1:50, or 1:400 to prepare samples. A sample was also prepared in which GSSSG dihydrate was not added and the molar ratio of HGF:GSSSG was 1:0. Peroxynitrite (ONOO^−) was immediately added to each sample such that the molar ratio of HGF:ONOO^− was 1:500. The samples were held at pH 7.2 to 7.4 and 25 to 37° C. for 30 minutes (nitrating treatment) to give nitrated samples.
The obtained nitrated samples were subjected to Western blotting in accordance with a conventional method. The nitrated samples were treated with a solution containing SDS and β-mercaptoethanol to give samples for reduced SDS-PAGE. A 10% polyacrylamide gel was used for electrophoresis. The material of the transfer membrane used was nitrocellulose. HRP-labeled anti-nitrotyrosine monoclonal antibody (catalog number: sc-32757 HRP, manufactured by Santa Cruz Biotechnology) and HRP-labeled anti-HGF monoclonal antibody (catalog number: sc-374422 HRP, manufactured by Santa Cruz Biotechnology) were used. The immune response was recorded on an imaging device using ECL reagents. Nitrated bovine serum albumin (BSAnitro) was used as a positive control sample. PL (Protein Ladder) and MW-STD (Molecular Weight-Standard) in FIG. 1 are molecular weight markers. Further, material A in FIG. 1 means GSSSG.
Nitration treatment and Western blotting were performed in the same manner as in Example 1 except that lipoic acid trisulfide was used instead of GSSSG and the molar ratio of HGF:ONOO was set to 1:4000. In FIG. 1, material B means lipoic acid trisulfide.

[1] = Solubility in water at 20° C.; type: physicochemical; conditions: free lipoic acid trisulfide

T1 sequence (Q08048 33-728): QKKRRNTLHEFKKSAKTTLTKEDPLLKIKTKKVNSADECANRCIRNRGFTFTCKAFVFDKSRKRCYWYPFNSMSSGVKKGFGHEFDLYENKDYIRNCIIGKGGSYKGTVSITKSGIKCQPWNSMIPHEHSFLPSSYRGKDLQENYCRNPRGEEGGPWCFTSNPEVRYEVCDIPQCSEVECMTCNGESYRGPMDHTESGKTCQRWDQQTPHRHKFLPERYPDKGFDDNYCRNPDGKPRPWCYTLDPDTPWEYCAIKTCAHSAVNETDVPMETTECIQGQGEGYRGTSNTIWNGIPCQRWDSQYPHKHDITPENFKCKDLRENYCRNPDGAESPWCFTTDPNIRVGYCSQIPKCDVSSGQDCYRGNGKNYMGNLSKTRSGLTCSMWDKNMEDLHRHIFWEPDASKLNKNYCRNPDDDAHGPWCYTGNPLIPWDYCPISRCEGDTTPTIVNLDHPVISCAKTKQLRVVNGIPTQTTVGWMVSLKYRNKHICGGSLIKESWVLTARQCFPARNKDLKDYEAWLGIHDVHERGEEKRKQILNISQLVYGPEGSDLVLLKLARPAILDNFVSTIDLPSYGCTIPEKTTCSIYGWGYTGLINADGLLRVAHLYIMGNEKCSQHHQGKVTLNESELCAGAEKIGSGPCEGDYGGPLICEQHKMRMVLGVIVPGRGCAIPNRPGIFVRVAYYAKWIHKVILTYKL

N[C@@H](CCC(=O)N[C@@H](CSSSC[C@H](NC(=O)CC[C@H](N)C(=O)O)C(=O)NCC(=O)O)C(=O)NCC(=O)O)C(=O)O [GSSSG, glutathione trisulfide]
reaction intensity with the anti-nitrotyrosine antibody (nitration of tyrosine residues in HGF) (recombinant mouse HGF; molar ratio HGF:GSSSG 1:0, 1:10, 1:50, 1:400, HGF:ONOO- 1:500, pH 7.2 to 7.4, 25 to 37° C., 30 minutes, FIG. 1): decreased with an increase in the molar ratio of GSSSG added
inhibit nitration of tyrosine residues in HGF (recombinant mouse HGF): in a concentration-dependent manner

O=C(O)CCCC[C@@H]1CCSSS1 [Lipoic acid trisulfide R body, (R)-lipoic acid trisulfide]
Lipoic acid trisulfide Solubility [1]: 300 µg/mL

O=C(O)CCCCC1CCSSS1 (centres unmarked) [lipoic acid trisulfide]
reaction intensity with the anti-nitrotyrosine antibody (nitration of tyrosine residues in HGF) (recombinant mouse HGF; increasing molar ratio of lipoic acid trisulfide, HGF:ONOO 1:4000, otherwise as Example 1, FIG. 2): decreased with an increase in the molar ratio of lipoic acid trisulfide added
inhibit nitration of tyrosine residues in HGF (recombinant mouse HGF): in a concentration-dependent manner
